Experimental findings from BindingDB's records for doi:10.1016/j.bioorg.2017.01.016 (CSIR-Indian Institute of Chemical Biology, 2017) are described below.

Structures are written as SMILES. Changes are numbered by the printed parent chain.

As usually defined, the Ki is the dissociation constant of the complex between target and ligand, obtained from inhibition or displacement. The low end stands for higher affinity, the high end for lower affinity. As usually defined, the IC50 is the midpoint of a concentration-inhibition curve. A high value points to a need for much substance.

One test addresses T1, Lipoxygenase (Soybean, UniProt B3TDK4).
T1 sequence (B3TDK4 whole entry): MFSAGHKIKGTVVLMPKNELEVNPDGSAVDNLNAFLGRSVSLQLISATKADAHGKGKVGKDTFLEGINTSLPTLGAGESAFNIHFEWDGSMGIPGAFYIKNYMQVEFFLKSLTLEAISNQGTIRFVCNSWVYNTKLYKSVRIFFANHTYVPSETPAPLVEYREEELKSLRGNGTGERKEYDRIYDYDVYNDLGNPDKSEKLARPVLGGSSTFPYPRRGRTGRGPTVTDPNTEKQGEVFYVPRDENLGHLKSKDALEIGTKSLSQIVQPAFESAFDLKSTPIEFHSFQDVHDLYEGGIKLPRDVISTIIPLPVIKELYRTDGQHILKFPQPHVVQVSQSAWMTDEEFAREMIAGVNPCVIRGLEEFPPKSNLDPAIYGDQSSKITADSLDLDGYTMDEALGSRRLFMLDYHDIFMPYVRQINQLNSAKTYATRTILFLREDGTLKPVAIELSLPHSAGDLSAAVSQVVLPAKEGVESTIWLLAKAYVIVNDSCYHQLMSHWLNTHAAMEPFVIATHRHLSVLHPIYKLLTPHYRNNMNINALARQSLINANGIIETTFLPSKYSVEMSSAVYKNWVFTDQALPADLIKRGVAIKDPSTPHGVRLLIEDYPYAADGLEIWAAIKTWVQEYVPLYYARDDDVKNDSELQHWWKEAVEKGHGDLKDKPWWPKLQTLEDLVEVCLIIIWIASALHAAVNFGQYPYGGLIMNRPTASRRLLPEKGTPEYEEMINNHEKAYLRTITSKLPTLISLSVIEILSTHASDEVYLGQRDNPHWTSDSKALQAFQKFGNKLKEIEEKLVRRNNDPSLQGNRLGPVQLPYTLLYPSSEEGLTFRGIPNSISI
As to the kind of experiment: Molecular Docking. The method, then: The crystal structure of soybean lipoxygenase-1 (PDB code: 3PZW), was used in our docking experiments. The 3D structure of 3PZW was reported by Chruszcz et al. [Chruszcz et al., Biophys. J., 95(1):1-9] using X-ray diffraction technique with a resolution of […] . The docking of ligands to the catalytic site of soybean lipoxygenase was performed using AutoDock 4.0 software (http://autodock.scripps.edu/).

Test [1] has as its target T2, Seed linoleate 13S-lipoxygenase-1 (Glycine max, UniProt P08170).
T2 sequence (P08170 whole entry): T1 sequence (B3TDK4 whole entry) with E160S
As to the kind of experiment: In Vitro Soybean Lipoxygenase (SLO) Inhibition Assay. The settings on record: pH 8. The text has this:
Following are the compositions of the blank, control and sample.

The compound `CCOC(=O)c1c(C)oc(-c2ccc(C)cc2)c1CC(=O)c1ccc(C)cc1` [2-Methyl-4-(2-oxo-2-p-tolyl-ethyl)-5-p-tolyl-furan-3-carboxylic acid ethyl ester (3d)] yielded a Ki at Lipoxygenase of 246 nM. For the same compound, in test [1], the IC50 was 22600 nM.

For the compound `CCOC(=O)c1c(C)oc(-c2ccccc2)c1CC(=O)c1ccccc1` [2-Methyl-4-(2-oxo-2-phenyl-ethyl)-5-phenyl-furan-3-carboxylic acid ethyl ester (3b)], at Lipoxygenase, the affinity, expressed as Ki, was 868 nM. Besides, the IC50 in test [1] amounted to 287000 nM. `COC(=O)c1c(C)oc(-c2ccccc2)c1CC(=O)c1ccccc1` [2-Methyl-4-(2-oxo-2-phenyl-ethyl)-5-phenyl-furan-3-carboxylic acid methyl ester (3a)] returned an inhibition constant Ki on Lipoxygenase of 662 nM. This compound displayed an IC50 in test [1] of 78500 nM. The like results for `COC(=O)c1c(C)oc(-c2ccc(C)c(Cl)c2)c1CC(=O)c1ccc(C)c(Cl)c1` [5-(3-Chloro-4-methyl-phenyl)-4-[2-(3-chloro-4-methyl-phenyl)-2-oxo-ethyl)-2-methyl-furan-3-carboxylic acid methyl ester (3i)] were, in that order, 357 nM and 47500 nM.

For the compound `CCOC(=O)c1c(C)oc(-c2ccc(Br)cc2)c1CC(=O)c1ccc(Br)cc1` [5-(4-Bromo-phenyl)-4[2-(4-bromo-phenyl)-2-oxo-ethyl]-2-methyl-furan-3-carboxylic acid ethyl ester (3f)], the Ki at Lipoxygenase turned out to be 141 nM. Besides, the IC50 in test [1] is 21200 nM. The matching figures for `COC(=O)c1c(C)oc(-c2ccc(Br)cc2)c1CC(=O)c1ccc(Br)cc1` [5-(4-Bromo-phenyl)-4[2-(4-bromo-phenyl)-2-oxo-ethyl]-2-methyl-furan-3-carboxylic acid methyl ester (3e)]: 70.9 nM and 12800 nM. As for `CCOC(=O)c1c(C)oc(-c2ccc(Cl)cc2)c1CC(=O)c1ccc(Cl)cc1` [5-(4-Chloro-phenyl)-4[2-(4-chloro-phenyl)-2-oxo-ethyl]-2-methyl-furan-3-carboxylic acid ethyl ester (3h)], affinity on Lipoxygenase was put at a Ki of 345 nM. In addition, in test [1], inhibition was half-maximal at 32000 nM (IC50). Compound `COC(=O)c1c(C)oc(-c2ccc(Cl)cc2)c1CC(=O)c1ccc(Cl)cc1` [5-(4-Chloro-phenyl)-4[2-(4-chloro-phenyl)-2-oxo-ethyl]-2-methyl-furan-3-carboxylic acid methyl ester (3g)] returned a Ki on Lipoxygenase of 313 nM. The same compound showed an IC50 in test [1] of 32500 nM. The compound `CC(Cc1ccc(O)c(O)c1)C(C)Cc1ccc(O)c(O)c1` (centres undefined) [LOX inhibitor, N/A] yielded a Ki at Lipoxygenase of 232 nM. As for `COC(=O)c1c(C)oc(-c2ccc(C)cc2)c1CC(=O)c1ccc(C)cc1` [Methyl 2-methyl-5-(4-methylphenyl)-4-[2-(4-methylphenyl)-2-oxoethyl]furan-3-carboxylate (3c)], the affinity on Lipoxygenase, expressed as Ki, was 178 nM. For the same compound, it took 22100 nM to reach half-maximal inhibition in test [1] (IC50).
